Where a name gives a salt, the structure may show the parent alone.
Experiments:
[1] = target: T1, recombinant human 5-HT2A receptor (Homo sapiens, UniProt P28223); experiment: Determination of Kb at 5-HT2A receptor, pCRE-Luc reporter gene assay in CHO cells; assay type: cell-based
T1 construct: expressed in transfected cells
Description: (§1) A stable CHO cell line expressing recombinant human 5-HT2A receptor and pCRE-Luc reporter system was used for cell-based assay. The assay offers a non-radioactive based approach to determine binding of a compound to GPCRs. In this specific assay, the level of intracellular cAMP which is modulated by activation or inhibition of the receptor was measured. The recombinant cells harbor luciferase reporter gene under the control of cAMP response element.
(§2) The above cells were grown in 96 well clear bottom white plates in Hams F12 medium containing 10% fetal bovine serum (FBS). Prior to the addition of compounds or standard agonist, cells were serum starved overnight. Increasing concentrations of test compound were added along with 1 μM of serotonin in Opti-MEM medium to the cells. The incubation was continued at 37° C. in CO2 incubator for 4 hours. Medium was removed and cells were washed with phosphate buffered saline. The cells were lysed and luciferase activity was measured in a Luminometer. Luminescence units were plotted against the compound concentrations using GraphPad Prism software. EC50 values of the compounds were defined as the concentration required in reducing the luciferase activity by 50%. The Kb values were calculated by feeding the concentration of agonist used in the assay and its EC50 value in the same software.

[2] = target: T2, recombinant human 5-HT1A receptor (Homo sapiens, UniProt P08908); experiment: Determination of Kb at 5-HT1A receptor, pCRE-Luc reporter gene assay in CHO cells; assay type: cell-based
T2 construct: expressed in transfected cells
T2 sequence (P08908 1-422): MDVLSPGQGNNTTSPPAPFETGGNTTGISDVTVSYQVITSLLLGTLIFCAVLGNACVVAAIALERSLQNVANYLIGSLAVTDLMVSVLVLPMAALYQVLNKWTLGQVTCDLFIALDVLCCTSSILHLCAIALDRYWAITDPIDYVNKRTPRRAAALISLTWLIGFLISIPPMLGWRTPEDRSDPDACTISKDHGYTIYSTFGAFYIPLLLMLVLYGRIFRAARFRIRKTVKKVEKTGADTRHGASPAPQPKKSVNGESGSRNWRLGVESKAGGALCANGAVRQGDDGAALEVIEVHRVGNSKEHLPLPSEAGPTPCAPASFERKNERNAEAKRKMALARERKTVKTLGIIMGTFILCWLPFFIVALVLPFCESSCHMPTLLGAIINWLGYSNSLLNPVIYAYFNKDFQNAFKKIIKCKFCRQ
Description: as §1, with “human 5-HT1A” for “human 5-HT2A”, “receptor is” for “receptor was”
as §2, with “U92016A and 1 μM of forskolin” for “serotonin”

Male Sprague Dawley rats = experiment: Amphetamine-induced hyperlocomotion; assay type: in vivo, rat; conditions: 3 mg/kg, p.o., dosed 30 min prior to trial
Description: Male Sprague Dawley rats of 230-280 g body weight were used. Rats were weighed and randomized according to their body weights. Following day, the rats were brought to the laboratory 1 h prior to test. In the morning session, rats were habituated to open field arena for 15 min. Test compound/vehicle and amphetamine/vehicle were administered 30 min prior to the trial. After the post-dose interval, rats were placed in the open field and locomotion was recorded for a period of 15 min. Amphetamine-induced hyperlocomotion models positive symptoms of schizophrenia.

Male Wistar rats = experiment: MK-801-induced amnesia in novel object recognition task (NORT); assay type: in vivo, rat; conditions: 0.3 mg/kg, p.o., MK-801 0.03 mg/kg, i.p.
Description: Male Wistar rats of 230-280 g body weight were used. Rats were weighed and randomized according to their body weights. On day 1, animals were habituated to the arenas for 45 min. On day 2, 30 min before the trial-1 animals were administered with vehicle (WFI) or test compound and 20 min before the trial-1 the animals were administered with MK-801 0.03 mg/kg, i.p. Trial-1 is familiarization task in the arena with two similar kind of silver color flasks of same dimensions for a period of 3 min. After an inter trial interval of 90 min animals were subjected to recognition task in the arena with one silver and one violet bottle for a period of 3 min. Time spent by the rats with either familiar or novel objects was noted and analyzed. MK-801-induced amnesia in novel object recognition task models cognitive deficits associated with schizophrenia.

Male CD1 mice = experiment: Resident-intruder task; assay type: in vivo, mouse; conditions: 3.0 mg/kg, p.o., 30 min prior to trial
Description: Male CD1 mice of weight 20-35 g (Resident) and 15-25 g (Intruder) were used. Resident mice were habituated individually with an ovariectomized female mouse in each cage and intruders were habituated socially for 1 week. β-estradiol at a dose of 0.2 mg/kg, s.c. was administered to female mice during habituation. On day 1 and day 2, intruder was exposed to resident mouse in resident's home cage for a period of 10 min and duration of attack was measured. During this exposure, female mouse were removed from the cage. On day 4 from initial exposure, animals were randomized based on their duration of attacking and administered respective treatments. Test compound and vehicle were administered 30 min prior to the trial. After post dose interval resident mice were exposed to same intruder for 10 min and duration of attack was recorded. Resident intruder task models aggressive behavior.

dopamine receptor = experiment: Reserpine-induced dihydroxyphenylalanine (DOPA) accumulation assay in rat striatum; assay type: in vivo; conditions: s.c.
Description: Reserpine (5.0 mg/kg, s.c.) was injected, after which rats were fasted for 18 h before sacrifice. […] Each rat was sacrificed and the striatum was dissected out of the whole brain on ice. Each striatum was weighed and homogenized individually in buffer containing 0.01 N hydrochloric acid and 0.2 mg/ml L-cysteine. Supernatants were subjected for quantification of DOPA using HPLC coupled to electrochemical detector.

T1 sequence (P28223 whole entry): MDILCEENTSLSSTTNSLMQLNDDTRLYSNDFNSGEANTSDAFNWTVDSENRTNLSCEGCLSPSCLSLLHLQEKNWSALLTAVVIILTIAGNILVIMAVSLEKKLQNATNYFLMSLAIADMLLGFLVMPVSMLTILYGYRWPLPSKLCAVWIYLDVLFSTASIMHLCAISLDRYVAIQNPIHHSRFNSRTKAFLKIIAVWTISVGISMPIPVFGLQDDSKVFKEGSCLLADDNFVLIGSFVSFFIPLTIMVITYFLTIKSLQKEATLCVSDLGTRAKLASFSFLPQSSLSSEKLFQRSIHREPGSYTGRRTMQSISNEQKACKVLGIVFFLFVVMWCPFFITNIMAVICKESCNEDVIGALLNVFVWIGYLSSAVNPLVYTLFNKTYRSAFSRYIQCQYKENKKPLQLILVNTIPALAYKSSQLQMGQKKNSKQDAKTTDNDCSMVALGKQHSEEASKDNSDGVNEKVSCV

Compound: O=C1C[C@@H]2CCCN2C(=O)N1CCCCN1CCN(c2nsc3ccccc23)CC1 [Example 2, 2-[4-(4-Benzo[d]isothiazol-3-yl-piperazin-1-yl)-butyl]-tetrahydro-pyrrolo[1,2-c]pyrimidine-1,3-dione oxalate]
- agonist activity at human recombinant 5-HT2A receptor ([1]; pCRE-Luc reporter gene assay): no detectable agonist activity
- antagonistic activity at human recombinant 5-HT2A receptor ([1]; pCRE-Luc reporter gene assay): antagonistic activity
- Kb ([1]; with 1 μM serotonin, luciferase readout): 8 nM
- agonist activity at human recombinant 5-HT1A receptor ([2]; pCRE-Luc reporter gene assay): no detectable agonist activity
- antagonistic activity at human recombinant 5-HT1A receptor ([2]; pCRE-Luc reporter gene assay): antagonistic activity
- Kb ([2]; with 1 μM U92016A and 1 μM forskolin, luciferase readout): 2.3 nM
- Inference, amphetamine antagonism (hyperlocomotion) (Male Sprague Dawley rats): Active
- Inference, MK-801-induced amnesia in NORT (Male Wistar rats): Active
- Inference, resident intruder task (duration of attack) (Male CD1 mice): Active
- change in reserpine elevated DOPA levels in striatum (dopamine receptor; 10 mg/kg, rat, reserpine 5.0 mg/kg): no change
- effect of pre-treatment on apomorphine's decrease of reserpine-induced DOPA accumulation (dopamine receptor; pre-treatment before apomorphine 0.1 mg/kg, rat striatum): blocked the effects of apomorphine
